Literature values in patent publication US8088760B2, “Benzoxazole carboxamide inhibitors of poly(ADP-ribose)polymerase (PARP)” (BioMarin Pharmaceutical Inc., priority 2008, dated 2012).

How the values were obtained:
PARP-1 = PARP-1 (Homo sapiens, UniProt P09874); conditions: PARP-1 inhibitor
[1] = test system: BRCA2-deficient cell line V-C8; conditions: BRCA2-deficient cell line V-C8 compared with the BRCA2 wild type control
CAPAN-1 cells = CAPAN-1 cells maintained in DMEM supplemented with FCS (20% v/v), glutamine and antibiotics

Chain of PARP-1 (P09874 whole entry, species assumed): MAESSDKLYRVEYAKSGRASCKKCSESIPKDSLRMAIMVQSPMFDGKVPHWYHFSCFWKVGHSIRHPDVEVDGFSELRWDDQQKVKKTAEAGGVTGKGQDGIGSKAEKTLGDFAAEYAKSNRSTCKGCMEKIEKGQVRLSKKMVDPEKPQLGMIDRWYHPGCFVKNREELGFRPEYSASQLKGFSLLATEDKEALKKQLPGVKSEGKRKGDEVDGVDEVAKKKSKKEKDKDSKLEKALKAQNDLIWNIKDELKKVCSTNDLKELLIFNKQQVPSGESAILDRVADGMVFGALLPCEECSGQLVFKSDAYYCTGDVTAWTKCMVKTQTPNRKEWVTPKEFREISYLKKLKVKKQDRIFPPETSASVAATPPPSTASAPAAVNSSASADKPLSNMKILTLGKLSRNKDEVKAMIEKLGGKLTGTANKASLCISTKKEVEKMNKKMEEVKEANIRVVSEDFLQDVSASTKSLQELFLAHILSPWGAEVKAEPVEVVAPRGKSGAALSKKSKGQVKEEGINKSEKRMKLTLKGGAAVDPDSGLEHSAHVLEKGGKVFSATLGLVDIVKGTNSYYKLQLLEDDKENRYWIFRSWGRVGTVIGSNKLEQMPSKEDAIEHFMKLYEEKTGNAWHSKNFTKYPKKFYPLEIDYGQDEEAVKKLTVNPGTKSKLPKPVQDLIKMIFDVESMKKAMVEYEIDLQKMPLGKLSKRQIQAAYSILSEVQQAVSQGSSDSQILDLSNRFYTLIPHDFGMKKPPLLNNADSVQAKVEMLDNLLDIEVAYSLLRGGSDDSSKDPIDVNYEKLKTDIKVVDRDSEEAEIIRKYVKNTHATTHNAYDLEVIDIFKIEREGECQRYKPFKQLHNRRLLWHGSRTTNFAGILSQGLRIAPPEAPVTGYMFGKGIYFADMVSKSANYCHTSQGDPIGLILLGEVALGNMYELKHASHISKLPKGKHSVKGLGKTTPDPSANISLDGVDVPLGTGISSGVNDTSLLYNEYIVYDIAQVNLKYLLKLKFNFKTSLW

CN(C)Cc1ccc(-c2nc3cccc4c3n2CCNC4=O)cc1 [AG14361]
Ki (PARP-1): 0.005 µM
sensitivity in clonogenic survival assay [1]: exhibited sensitivity

O=C1CCC(=O)N1c1cc(Cc2n[nH]c(=O)c3ccccc23)ccc1F [KU0058684]
sensitivity in clonogenic survival assay (CAPAN-1 cells): showing sensitivity to PARP inhibition
in vivo efficacy in blocking tumor growth (BRCA2-deficient tumors): in vivo efficacy in blocking the growth of BRCA2-deficient tumors

Cc1nc2c(O)cccc2c(=O)[nH]1 [NU1025]
Ki (PARP-1): 0.05 µM
sensitivity in clonogenic survival assay [1]: exhibited sensitivity
